Results on 7 compounds are retold here after publication PMC4457633 (Bioorganic & medicinal chemistry letters, 2015).

The target in data set [1] is T1, VMAT-2 (Rattus norvegicus, UniProt Q01827). Briefly: [3H]DA uptake at VMAT-2, isolated rat synaptic vesicle preparations. The note with it: for fold more potent inhibiting [3H]DA uptake at VMAT-2 compared to 16: compared to N-2,3-dihydroxypropyl derivative 16. Format: biochemical.
For data set [2] the following is noted: qualitative; ref [15]; cited from earlier work.
Data set [3] has as its target T1, VMAT-2. The note with it: read-out: [3H]DTBZ Binding Ki; mean ± SEM; rat brain synaptic vesicles; ref [15]; cited from earlier work.
Data set [4] has as its target T1, VMAT-2. The note with it: read-out: [3H]DA uptake Ki; mean ± SEM; rat synaptic vesicles; ref [15]; cited from earlier work.

The structures appear in SMILES notation. Where two headings read alike, the source gives them in different places.

T1 sequence (Q01827 whole entry): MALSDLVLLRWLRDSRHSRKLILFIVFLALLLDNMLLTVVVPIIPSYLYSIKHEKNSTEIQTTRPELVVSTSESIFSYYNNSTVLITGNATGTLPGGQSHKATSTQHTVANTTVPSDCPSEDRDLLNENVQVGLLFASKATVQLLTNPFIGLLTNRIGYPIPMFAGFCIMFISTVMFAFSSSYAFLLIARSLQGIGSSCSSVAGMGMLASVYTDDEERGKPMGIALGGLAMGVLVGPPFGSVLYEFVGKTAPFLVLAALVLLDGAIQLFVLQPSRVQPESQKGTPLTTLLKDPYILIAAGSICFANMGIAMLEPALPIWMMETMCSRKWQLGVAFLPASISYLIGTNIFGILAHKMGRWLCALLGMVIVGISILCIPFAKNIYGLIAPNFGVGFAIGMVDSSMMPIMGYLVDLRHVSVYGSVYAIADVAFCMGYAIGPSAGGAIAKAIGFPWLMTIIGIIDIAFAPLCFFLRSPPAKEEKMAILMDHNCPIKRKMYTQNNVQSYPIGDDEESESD

For the compound `OC[C@H](O)CN1[C@@H](CCc2ccc3ccccc3n2)CCC[C@H]1CCc1ccc2ccccc2n1` [Compound 16], the “fold lower inhibitory potency than GZ-793A in vesicular [3H]DA uptake assay” value at VMAT-2 [1] (compared to GZ-793A (Ki = […] nM)) was 8 fold. Take `c1cnc2ccc(CC[C@H]3CCC[C@@H](CCc4ccc5ncccc5c4)N3)cc2c1` [Compound 15]: at VMAT-2 [1], the “fold more potent inhibiting [3H]DA uptake at VMAT-2 compared to 16” value (“fold more potent inhibiting” below) is reported as “about 6 fold”.

Take `c1ccc2c(CC[C@H]3CCC[C@@H](CCc4ccnc5ccccc45)N3)ccnc2c1` [Compound 14]: the “fold more potent inhibiting” value at VMAT-2 [1] is listed as “about 6 fold”. Take `CN1[C@@H](CCc2ccnc3ccccc23)CCC[C@H]1CCc1ccnc2ccccc12` [Quinlobelane]: the water solubility result in data set [2] was “improved water solubility over lobelane and norlobelane”. Turning to `c1ccc2nc(CC[C@H]3CCC[C@@H](CCc4ccc5ccccc5n4)N3)ccc2c1` [Compound 13], on VMAT-2 [1], the “fold more potent inhibiting” value is “about 6 fold”. As to `c1ccc(CC[C@H]2CCC[C@@H](CCc3ccccc3)N2)cc1` [Norlobelane], the Ki – broadly, a dissociation constant, usually derived from enzyme kinetics or from competition with a known ligand – is 2310 ± 190 nM at VMAT-2 [3] and 43 ± 2 nM on VMAT-2 [4]. For the same compound, the water solubility result in data set [2] was “less than optimal water-solubility”.

With `CN1[C@@H](CCc2ccccc2)CCC[C@H]1CCc1ccccc1` [Lobelane], the water solubility entry in data set [2] is on record as “less than optimal water-solubility”.
